Measurements reported in patent US11160869B2 (priority 2019, dated 2021).

Assays:
[1] = Single oral capsule dose in NHP: plasma caffeine by LC-MS/MS; assay type: in vivo, Macaca fascicularis
Protocol: In order to quantitate plasma caffeine levels, an LC-MS/MS detection system was employed. A 25-μL matrix aliquot was fortified with 25 μL of 2.00 μg/mL caffeine-trimethyl-^13C3 internal standard working solution. Analytes were isolated through supported liquid extraction (SLE). A portion of the eluate was transferred and evaporated under a nitrogen stream at approximately 45° C., and the remaining residue reconstituted with 500 μL of water/acetonitrile (95:5, v/v). The final extract was analyzed via HPLC with MS/MS detection using positive ion electrospray and reverse phase chromatography. Caffeine concentration was determined using similarly run calibration controls.
IL-10 delivery construct dosing at multiple fixed doses in non-naïve adult male Macaca fascicularis was conducted by Valley Biosystems (West Sacramento, Calif.). […] Dosing groups are described in TABLE 45.

[2] = tested on: growth factors, chemokines and cytokines; assay type: in vivo, mice; conditions: mouse, in vivo
[3] = Surfactant evaluation under shear stress (vortex 800 rpm 4 h): visual, turbidity, SEC-HPLC; assay type: physicochemical; conditions: for effect of surfactant on IL-10 delivery construct forms (SEC-HPLC): 1xPBS, before/after vortexing
Protocol: Following vortexing, the solution was visually inspected. The sample without a surfactant was slightly hazy while the samples with the surfactant were clear after vortexing. The turbidity (340-360 nm) of the solution was assessed after vortexing.
SEC-HPLC was carried out on the IL-10 delivery construct formulations before (FIG. 93) and after (FIG. 94) vortexing (TABLE 48).

STAT3 [4] = assay: pSTAT3/total STAT3 in colon tissue of non-inflamed mice (ELISA MSD); assay type: in vivo; conditions: construct 1 mg/kg; rhIL-10 0.9 mg/kg; oral
IL-1Ra = assay: Systemic IL-1Ra in non-inflamed mice (ELISA MSD); assay type: in vivo; conditions: construct 10 mg/kg; rhIL-10 3 mg/kg; oral
[5] = Intraluminal injection in T-cell transfer model: rhIL-10 ELISA in intestinal tissue and serum; assay type: in vivo, BALB/c and SCID mice; conditions: intraluminal injection
Protocol: This study was conducted to examine the potential for the carrier protein to transport rhIL-10 from the intestinal lumen into the submucosal region in inflamed intestinal tissue. The T lymphocyte (T cell) transfer model was used as it is a well-established model of induced chronic colitis in mice and presents many of the essential immunological hallmarks observed in IBD patients. Nine BALB/c mice and twelve SCID mice, including nine with the colitis-like model of inflammation, were dosed with 20 μl of test article via intraluminal injection into the distal ileum and the proximal, middle and distal colon. […] In each group, two mice were terminated 10 minutes after intraluminal injections, and one was terminated 40 minutes after intraluminal injections. Intestinal tissue and serum were collected. Collected tissue was fixed, embedded, sectioned and H&E stained for histological assessment of inflammatory status. ELISA analysis to measure rhIL 10 was performed on lysates prepared from intestinal tissue and serum (FIGS. 106A-106D).

STAT3 [6] = assay: pSTAT3 induction and hIL-10 in intestinal tissue 40 min after oral gavage, immunofluorescence and image analysis; assay type: in vivo, rat; conditions: 40 min post oral gavage
Protocol: This observation is consistent with findings in mice that intestinal epithelial cells can express IL-10 receptors at their apical surface under certain conditions associated with development and maintenance of barrier function. […] In order to quantify how test articles affected intestinal IL-10 signal transduction pathways, image analysis was performed: high-throughput image batches were collected, segmented by epithelial versus lamina propria localization, and then by cellular features.

STAT3 [7] = assay: STAT3 phosphorylation in J774.2 macrophage cells
IL-10RA and IL-10RB = target: T1, IL-10RA and IL-10RB (Homo sapiens, UniProt Q08334+Q13651); assay: IL-10 receptor dimerization luminescence assay in engineered U2OS cells; conditions: 6 h
T1 sequence (Q13651 22-578): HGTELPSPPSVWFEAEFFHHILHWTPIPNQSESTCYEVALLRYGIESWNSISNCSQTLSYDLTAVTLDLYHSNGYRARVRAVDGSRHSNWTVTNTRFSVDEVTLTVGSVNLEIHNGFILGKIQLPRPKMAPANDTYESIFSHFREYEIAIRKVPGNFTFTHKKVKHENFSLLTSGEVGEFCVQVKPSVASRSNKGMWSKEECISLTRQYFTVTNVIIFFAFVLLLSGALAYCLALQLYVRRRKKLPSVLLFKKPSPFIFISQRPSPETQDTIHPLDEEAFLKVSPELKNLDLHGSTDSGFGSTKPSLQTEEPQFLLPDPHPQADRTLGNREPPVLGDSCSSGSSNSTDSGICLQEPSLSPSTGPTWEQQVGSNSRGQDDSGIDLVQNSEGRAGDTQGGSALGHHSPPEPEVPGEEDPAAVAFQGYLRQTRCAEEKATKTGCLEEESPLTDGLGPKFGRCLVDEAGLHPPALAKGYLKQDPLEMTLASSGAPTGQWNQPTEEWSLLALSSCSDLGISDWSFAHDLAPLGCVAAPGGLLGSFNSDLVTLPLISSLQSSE
T1 sequence (Q08334 20-325): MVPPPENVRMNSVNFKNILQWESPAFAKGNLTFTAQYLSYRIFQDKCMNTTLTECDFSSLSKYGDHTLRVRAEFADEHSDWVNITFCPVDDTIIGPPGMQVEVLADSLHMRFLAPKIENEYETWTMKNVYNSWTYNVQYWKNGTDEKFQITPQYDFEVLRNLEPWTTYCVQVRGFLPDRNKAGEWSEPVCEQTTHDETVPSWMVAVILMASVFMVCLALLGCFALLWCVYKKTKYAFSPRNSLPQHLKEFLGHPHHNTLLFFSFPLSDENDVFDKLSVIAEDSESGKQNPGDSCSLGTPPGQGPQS

Molecule: Cn1c(=O)c2c(ncn2C)n(C)c1=O [caffeine]
- time at which absorption of caffeine was observable (capsule opening) ([1]; all doses): 2-3 hours post dose
- Cmax ([1]; male, cynomolgus monkey, plasma, po, 1 mg dosing group, 1x10 mg caffeine): 1350 ng/mL
- Cmax ([1]; male, cynomolgus monkey, plasma, po, 20.5 mg dosing group, 1x10 mg caffeine): 800 ng/mL
- Cmax ([1]; male, cynomolgus monkey, plasma, po, 82 mg dosing group, 4x10 mg caffeine): 3790 ng/mL
- Cmax ([1]; male, cynomolgus monkey, plasma, po, 4x10 mg caffeine): 6120 ng/mL
- Tmax ([1]; male, cynomolgus monkey, plasma, po, all doses): 4 h

Molecule: Nc1ccc(O)c(C(=O)O)c1 [5-ASA, 5-aminosalicylic acid, reference compound]
- oxazolone-induced increase in plasma GCSF/CSF3 [2]: attenuated

Molecule: polysorbate 20
- absorbance in the 340-360 nm range after vortexing ([3]; 0.1% in 1xPBS): increase in absorbance was also observed
- effect of surfactant on IL-10 delivery construct forms (SEC-HPLC) [3]: most amount of monomer before vortexing

Molecule: rhIL-10: recombinant human IL-10, commercial preparation, comparator [reference compound]
- increase in ratio of pSTAT3 to total STAT3 (STAT3 [4]): did not significantly alter
- increase of systemic IL-1Ra (IL-1Ra): did not significantly increase
- rhIL-10 in serum of inflamed animals [5]: minimal amounts of rhIL-10 were detected
- hIL-10 and pSTAT3 in intestinal tissue (STAT3 [6]): exhibited pSTAT3 induction in enterocytes but not in cells within the lamina propria
- amplitude of pSTAT3/total STAT3 (STAT3 [7]): 2.19%
- EC50 (IL-10RA and IL-10RB; read-out: EC50, IL-10R dimerization): 0.0915 nM

Molecule: polysorbate 80
- effect of surfactant on IL-10 delivery construct forms (SEC-HPLC) [3]: increase in HMW aggregates and monomers

B1: cholix derived carrier: truncated non-toxic cholix variant of 386 amino acids, carrier alone (protein)
chain: VEEALNIFDECRSPCSLTPEPGKPIQSKLSIPSDVVLDEGVLYYSMTINDEQNDIKDEDKGESIITIGEFATVRATRHYVNQDAPFGVIHLDITTENGTKTYSYNRKEGEFAINWLVPIGEDSPASIKISVDELDQQRNIIEVPKLYSIDLDNQTLEQWKTQGNVSFSVTRPEHNIAISWPSVSYKAAQKEGSRHKRWAHWHTGLALCWLVPMDAIYNYITQQNCTLGDNWFGGSYETVAGTPKVITVKQGIEQKPVEQRIHFSKGNAMSALAAHRVCGVPLETLARSRKPRDLTDDLSCAYQAQNIVSLFVATRILFSHLDSVFTLNLDEQEPEVAERLSDLRRINENNPGMVTQVLTVARQIYNDYVTHHPGLTPEQTSAGAQA
- EC50, IL-10R dimerization (IL-10RA and IL-10RB): did not induce IL-10R dimerization
